Experimental data from US10131652B2, “Pyrimidinyloxy benzene derivatives as herbicides” (E. I. DU PONT DE NEMOURS AND COMPANY, priority 2014, dated 2018).

Tests used:
Type in all cases: in vivo
[1] = tested on: rice (Oryza sativa); assay: Test C flooded paddy test plant response; settings: Flood, 250 g ai/ha; scale of 0 to 100 where 0 is no effect and 100 is complete control; 13 to 15 days
Method in brief: (§1)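 Visual injury ratings (0, no effect; 100, complete control) were assigned after 13 to 15 days in a greenhouse, comparing treated plants with controls. Compounds had been added straight into paddy water over 2-leaf-stage plants flooded to 3 cm.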

[2] = tested on: small-flower umbrella sedge (Cyperus difformis); assay: Test C flooded paddy test plant response; settings: Flood, 250 g ai/ha; scale of 0 to 100 where 0 is no effect and 100 is complete control; 13 to 15 days
Method in brief: as §1

[3] = tested on: barnyardgrass (Echinochloa crus-galli); assay: Test C flooded paddy test plant response; settings: Flood, 250 g ai/ha; scale of 0 to 100 where 0 is no effect and 100 is complete control; 13 to 15 days
Method in brief: as §1

[4] = tested on: ducksalad (Heteranthera limosa); assay: Test C flooded paddy test plant response; settings: Flood, 250 g ai/ha; scale of 0 to 100 where 0 is no effect and 100 is complete control; 13 to 15 days
Method in brief: as §1

[5] = tested on: Italian ryegrass (Lolium multiflorum); assay: Test B pre-/postemergence plant response
Source text: (§2) Seeds of plant species selected from bamyardgrass (Echinochloa crus-galli), kochia (Kochia scoparia), ragweed (common ragweed, Ambrosia elatior), Italian ryegrass (Lolium multiflorum), large (Lg) crabgrass (Digitaria sanguinalis), giant foxtail (Setaria faberii), momingglory (Ipomoea spp.), pigweed (Amaranthus retroflexus), velvetleaf (Abutilon theophrasti), wheat (Triticum aestivum), and corn (Zea mays) were planted into a blend of loam soil and sand and treated preemergence with a directed soil spray using test chemicals formulated in a non-phytotoxic solvent mixture which included a surfactant. At the same time, plants selected from these crop and weed species and also blackgrass (Alopecurus myosuroides), and galium (catchweed bedstraw, Galium aparine) were planted in pots containing the same blend of loam soil and sand and treated with postemergence applications of test chemicals formulated in the same manner. Plants ranged in height from 2 to 10 cm and were in the one- to two-leaf stage for the postemergence treatment. Treated plants and untreated controls were maintained in a greenhouse for approximately 10 days, after which time all treated plants were compared to untreated controls and visually evaluated for injury. Plant response ratings, summarized in Table B, are based on a 0 to 100 scale where 0 is no effect and 100 is complete control. A dash (-) response means no test result.

[6] = tested on: barnyardgrass (Echinochloa crus-galli); assay: Test B pre-/postemergence plant response
Source text: as §2

[7] = tested on: wheat (Triticum aestivum); assay: Test B pre-/postemergence plant response
Source text: as §2

[8] = tested on: kochia (Kochia scoparia); assay: Test B pre-/postemergence plant response
Source text: as §2

[9] = tested on: corn (Zea mays); assay: Test B pre-/postemergence plant response
Source text: as §2

[10] = tested on: giant foxtail (Setaria faberii); assay: Test B pre-/postemergence plant response
Source text: as §2

[11] = tested on: pigweed (Amaranthus retroflexus); assay: Test B pre-/postemergence plant response
Source text: as §2

[12] = tested on: ragweed (common ragweed, Ambrosia elatior); assay: Test B pre-/postemergence plant response
Source text: as §2

[13] = tested on: galium (catchweed bedstraw, Galium aparine); assay: Test B postemergence plant response
Method in brief: (§3)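 Visual injury ratings, 0 = no effect to 100 = complete control, versus untreated controls approximately 10 days after postemergence spraying in greenhouse. Plants were at one- to two-leaf stage, 2 to 10 cm tall, in loam soil/sand blend; a dash denotes no result.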

[14] = tested on: blackgrass (Alopecurus myosuroides); assay: Test B postemergence plant response
Method in brief: as §3

[15] = 125 g ai/ha, postemergence, 0 to 100 scale, 0 no effect, 100 complete control
[16] = 500 g ai/ha, postemergence, 0 to 100 scale, 0 no effect, 100 complete control
[17] = Preemergence, 125 g ai/ha, 0 to 100 scale (0 no effect, 100 complete control)
[18] = Preemergence, 500 g ai/ha, 0 to 100 scale where 0 is no effect and 100 is complete control
[19] = 31 g ai/ha, Preemergence, 0 to 100 scale where 0 is no effect and 100 is complete control
[20] = Postemergence, 31 g ai/ha, 0 to 100 scale (0 no effect, 100 complete control)
[21] = Postemergence, 500 g ai/ha, 0 to 100 scale (0 no effect, 100 complete control)

| Structure (SMILES) | Rice plant response rating [1] | Sedge, Umbrella plant response rating [2] | Barnyardgrass plant response rating [3] | Ducksalad plant response rating [4] | Plant response rating, Ryegrass, Italian [5, 15] | Ryegrass, Italian plant response rating [5, 17] | Plant response rating, Barnyardgrass [6, 15] | Barnyardgrass plant response rating [6, 17] | Plant response rating, Wheat [7, 15] | Plant response rating, Kochia [8, 15] | Kochia plant response rating [8, 17] | Plant response rating, Corn [9, 15] | Plant response rating, Foxtail, Giant [10, 15] | Foxtail, Giant plant response rating [10, 17] | Plant response rating, Pigweed [11, 15] | Pigweed plant response rating [11, 17] | Plant response rating, Ragweed [12, 15] | Ragweed plant response rating [12, 17] | Plant response rating, Galium [13, 15] | Plant response rating, Blackgrass [14, 15] | further results |
| --- | --- | --- | --- | --- | --- | --- | --- | --- | --- | --- | --- | --- | --- | --- | --- | --- | --- | --- | --- | --- | --- |
| Fc1cccc(Oc2ncc(Cl)cn2)c1-c1cn(CC(F)(F)F)cn1 [Compound 217] | 0 | 0 | 20 | 40 | 0 | 0 | 0 | 0 | 0 | 10 | 0 | 0 | 0 | 0 | 10 | 10 | 10 | 0 | 10 | 0 | Plant response rating, Ryegrass, Italian [5, 16]: 0; Plant response rating, Ryegrass, Italian [5, 18]: 10; Plant response rating, Barnyardgrass [6, 16]: 0; Plant response rating, Barnyardgrass [6, 18]: 10; Plant response rating, Wheat [7, 16]: 0; Plant response rating, Kochia [8, 16]: 30; Plant response rating, Kochia [8, 18]: 0; Plant response rating, Corn [9, 16]: 0; Plant response rating, Foxtail, Giant [10, 16]: 0; Plant response rating, Foxtail, Giant [10, 18]: 30; Plant response rating, Pigweed [11, 16]: 60; Plant response rating, Pigweed [11, 18]: 70; Plant response rating, Ragweed [12, 16]: 30; Plant response rating, Ragweed [12, 18]: 0; Plant response rating, Galium [13, 16]: 30; Plant response rating, Blackgrass [14, 16]: 0 |
| Clc1cnc(Oc2ccccc2-c2ccsc2)nc1 [Compound 231] | 0 | 70 | 0 | 65 | 0 | 0 | 10 | 10 | 0 | 40 | 0 | 0 | 10 | 10 | 40 | 20 | 0 | 0 | 20 | 0 | Plant response rating, Ryegrass, Italian [5, 19]: 0; Plant response rating, Ryegrass, Italian [5, 20]: 0; Plant response rating, Barnyardgrass [6, 19]: 0; Plant response rating, Barnyardgrass [6, 20]: 0; Plant response rating, Wheat [7, 20]: 0; Plant response rating, Kochia [8, 19]: 0; Plant response rating, Kochia [8, 20]: 20; Plant response rating, Corn [9, 20]: 0; Plant response rating, Foxtail, Giant [10, 19]: 0; Plant response rating, Foxtail, Giant [10, 20]: 0; Plant response rating, Pigweed [11, 19]: 0; Plant response rating, Pigweed [11, 20]: 20; Plant response rating, Ragweed [12, 19]: 0; Plant response rating, Ragweed [12, 20]: 0; Plant response rating, Galium [13, 20]: 0; Plant response rating, Blackgrass [14, 20]: 0 |
| Cc1c(-c2ccccc2Oc2ncc(Cl)cn2)noc1C(F)(F)F [Compound 167] | 0 | 0 | 0 | 0 | 0 | 0 | 0 | 0 | 10 | 10 | 0 | 0 | 0 | 0 | 10 | 0 | 0 | 0 | 10 | 0 | Plant response rating, Ryegrass, Italian [5, 21]: 0; Plant response rating, Ryegrass, Italian [5, 18]: 0; Plant response rating, Barnyardgrass [6, 21]: 10; Plant response rating, Barnyardgrass [6, 18]: 10; Plant response rating, Wheat [7, 21]: 20; Plant response rating, Kochia [8, 21]: 60; Plant response rating, Kochia [8, 18]: 30; Plant response rating, Corn [9, 21]: 20; Plant response rating, Foxtail, Giant [10, 21]: 10; Plant response rating, Foxtail, Giant [10, 18]: 30; Plant response rating, Pigweed [11, 21]: 70; Plant response rating, Pigweed [11, 18]: 20; Plant response rating, Ragweed [12, 21]: 0; Plant response rating, Ragweed [12, 18]: 10; Plant response rating, Galium [13, 21]: 60; Plant response rating, Blackgrass [14, 21]: 10 |
| COc1ccnc(-c2ccccc2Oc2ncc(Cl)cn2)c1 [Compound 219] | 0 | 0 | 0 | 0 | 0 | 0 | 0 | 0 | 0 | 0 | 0 | 0 | 0 | 0 | 10 | 0 | 30 | 0 | 30 | 0 | Plant response rating, Ryegrass, Italian [5, 19]: 0; Plant response rating, Ryegrass, Italian [5, 20]: 0; Plant response rating, Barnyardgrass [6, 19]: 0; Plant response rating, Barnyardgrass [6, 20]: 0; Plant response rating, Wheat [7, 20]: 0; Plant response rating, Kochia [8, 19]: 0; Plant response rating, Kochia [8, 20]: 0; Plant response rating, Corn [9, 20]: 0; Plant response rating, Foxtail, Giant [10, 19]: 0; Plant response rating, Foxtail, Giant [10, 20]: 0; Plant response rating, Pigweed [11, 19]: 0; Plant response rating, Pigweed [11, 20]: 10; Plant response rating, Ragweed [12, 19]: 0; Plant response rating, Ragweed [12, 20]: 20; Plant response rating, Galium [13, 20]: 20; Plant response rating, Blackgrass [14, 20]: 0 |
